For assay [1], the system named is S. epidermidis ATCC 12228. Type of assay: cell-based, Staphylococcus epidermidis. Here is the method:
(§1) Antimicrobial assays. Antimicrobial assays were performed using the CFU assay as previously described (Rieg, S. et al. 2005 J. Immunol. 174:8003-8010, Schittek, B. et al. 2001 Nat. Immunol. 2:1133-1137). The antibacterial activity of DCD-derived peptides and LL-37 was tested against the following bacterial strains: Escherichia coli ATCC 25922, methicillin-susceptible Staphylococcus aureus ATCC 25923 (MSSA), methicillin-resistant Staphylococcus aureus (MRSA; clinical isolate), Staphylococcus epidermidis ATCC 12228, and Pseudomonas aeruginosa ATCC 27853. E. coli ML-35p was generously provided by Robert Lehrer (Department of Medicine, Center for Health Sciences, Los Angeles, Calif.) and cultivated on Luria-Bertani (LB) plates containing 50 μg of ampicillin/ml. This strain constitutively expresses cytoplasmic […] but lacks lactose permease (Lehrer, R. I. et al. 1988 J. Immunol. Methods 108:153-158). The bacterial membrane mutants Staphylococcus aureus mprF and dltA and Staphylococcus epidermidis Δica and the corresponding wild-type strains S. aureus 113 and S. epidermidis 1457 were previously described (Gotz, F. 2002 Mol. Microbiol. 43:1367-1378, Peschel, A. et al. 2001 J. Exp. Med. 193:1067-1076). Bacterial cultures were grown to mid-exponential growth phase and washed three times with 10 mM sodium phosphate buffer-10 mM NaCl (pH 7.0). The bacterial concentration was estimated photometrically at 600 nm. Absorbance of 1.0 corresponded to 8.56×10^8/ml for E. coli; 1×10^8/ml for E. coli ML-35p; 1.97×10^8/ml for S. aureus, MRSA, and the wild-type and membrane mutants of S. aureus and S. epidermidis; and 5.07×10^8/ml for P. aeruginosa.
(§2) After dilution to a concentration of 10^6 CFU/ml, 10-μl portions of the dilutions were incubated at 37° C. for 2 to 4 h with the respective peptide diluted in water in a total volume of 30 μl in 10 mM sodium phosphate buffer-10 mM NaCl (pH 7.0). After incubation, the cells were diluted 1:100 in 10 mM sodium phosphate buffer-10 mM NaCl (pH 7.0), and 90 μl of the diluted bacterial suspension was plated in triplicates on blood agar. Bacterial colonies were counted after incubation for 18 to 24 h at 37° C. The antimicrobial activity was calculated by using [(cell survival after peptide incubation)/(cell survival in buffer without peptide)×100]. The LC90 describes the lethal concentration of the current synthetic peptide in μg/ml or μM that leads to a 90% reduction of CFU compared to the buffer control.
(§3) ^aThe 90% inhibitory concentration (IC90) is the concentration of peptide in μg/ml (or in μM [in parentheses]) able to kill 90% of the microorganisms in 10 mM NaP-10 mM NaCl in a CFU assay compared to the control incubated only in buffer without peptide. ND, not determined.

A further assay has as its system S. epidermidis Δica. Type of assay: cell-based, Staphylococcus epidermidis. The conditions noted are these: 10 mM NaP-10 mM NaCl, CFU assay. Here is the method: as §1, §2, §3
The next assay has as its system E. coli ML-35p. Type of assay: cell-based, Escherichia coli. To be noted: 10 mM NaP-10 mM NaCl, CFU assay. How it is done: as §1, §2, §3
In a further assay the test system is E. coli ATCC 25922. The assay is classed as cell-based, Escherichia coli. Here is the method:
as §1, §2, §3

In another assay the test system is P. aeruginosa ATCC 27853. The assay is classed as cell-based, Pseudomonas aeruginosa. Here is the method: as §1, §2, §3
The test system of another assay is S. aureus mprF. The assay is classed as cell-based, Staphylococcus aureus. To be noted: 10 mM NaP-10 mM NaCl, CFU assay. Here is the method:
as §1, §2, §3

In another assay the test system is S. aureus dltA. The assay is classed as cell-based, Staphylococcus aureus. The conditions noted are these: 10 mM NaP-10 mM NaCl, CFU assay. Here is the method: as §1, §2, §3
The test system of assay [2] is S. aureus (MSSA) ATCC 25923. Type of assay: cell-based, Staphylococcus aureus. How it is done: as §1, §2, §3
The subject of another assay is S. aureus (ATCC 25923). The assay is described as follows: TEM and IEM of peptide-treated bacteria. Type of assay: cell-based, Staphylococcus aureus. How it is done: FIG. 10. Morphology of peptide-treated S. aureus. […] As a negative control cells were incubated in buffer without peptide. For the immune-EM, bacteria were incubated with a polyclonal antiserum to DCD-1, and the reactivity was detected by immunogold labeling. Seen is the binding of DCD to the bacterial surface.
TEM and IEM. Liquid cultures of S. aureus (ATCC 25923) cells grown up to mid-logarithmic phase were washed twice in 10 mM sodium phosphate buffer (pH 7.4). […] In parallel, antimicrobial assays with both peptides were performed which confirmed the antibacterial activity of both peptides. For immune electron microscopy (IEM), cells were fixed in PLP and centrifuged, and the resulting bacterial pellet was embedded in 3.5% agarose at 37° C. and cooled on ice. Small parts of agarose blocks were embedded in Lowicryl (Polysciences, Eppelheim, Germany). Ultrathin sections (50 nm) were mounted on Formvar-coated nickel grids and incubated with rabbit anti-DCD, followed by 10-nm gold-conjugated goat anti-rabbit immunoglobulin G (Auroprobe EM; Amersham, Freiburg, Germany). In control samples the primary antibody was omitted. Samples were examined by using a Zeiss 109 transmission electron microscope (Zeiss, Oberkochen, Germany). For transmission EM (TEM) bacterial pellets were fixed in Karnovsky's fixative, postfixed in 1% osmium tetroxide, and embedded in Epon.

The subject of assay [3] is Escherichia coli, Staphylococcus aureus, Enterococcus faecalis and Candida albicans. The assay is described as follows: CFU test (colony-forming units), Example 4. Type of assay: cell-based. To be noted: sodium phosphate buffer, 37° C., 3 h, 4 h or overnight. Here is the method: The antimicrobial effect of said peptides was carried out by a CFU test (test for colony-forming units) as described for the defensins by Valore et al., “Human Beta-Defensin-1: An Antimicrobial Peptide of Urogenital Tissues”, J Clin Invest 101, 1633-1642 (1998).
The test of the novel peptides was carried out with Escherichia coli, Staphylococcus aureus, Enterococcus faecalis and Candida albicans. E. coli was incubated in LB medium, E. faecalis and S. aureus in Columbia medium (Difko, BD Heidelberg) and C. albicans in casein hydrolysate medium (Merck, Darmstadt). The amounts of bacteria and yeasts were determined by photometry. The bacterial strains were incubated to an optical density of […] at 600 nm and the yeast was incubated to an optical density of 0.4-0.6 at 450 nm. The amount of the organisms was determined by plating various dilutions as follows: an OD of 1 at 600 nm is equivalent to 8.2×10^9/ml for E. coli, 1.9×10^10/ml for S. aureus and 9.0×10^9/ml for E. faecalis, and an OD of 1 at […] is equivalent to 1.4×10^8/ml for C. albicans.
The cells were washed twice with 10 mM sodium phosphate buffer (pH 7.4) and diluted to 2-3×10^7 cells/ml (E. coli, E. faecalis), 5.7×10^7 cells/ml (S. aureus) or 5×10^5 cells/ml (C. albicans) in phosphate buffer.
The cells were incubated with various amounts of the peptides in 200 μl of sodium phosphate buffer at 37° C. for 3 h, 4 h or overnight (21-24 h). The cells were diluted 1:10 to 1:100 for the bacteria and 1:500 to 1:5000 for the yeast, and 50 μl, 100 μl and 200 μl were plated on appropriate agar plates. The plates were incubated at 37° C. overnight, and the number of colonies was counted. The antimicrobial effect of the peptides has been stated as percentage of killed cells: [1−(cell survival after incubation with the peptide)/(cell survival after control incubation)]×100.

No end group written: not given here.

As for “LEKGLDGAKKAVGGLGKLGKDAVEDLESVGKGAVHDVKDVLDSVL [LEK-45]”, the IC90 in assay [1] is 200 (44) μg/ml; in the assay with S. epidermidis Δica, over 200 µg/mL; with E. coli ML-35p, over 200 µg/mL; in the assay on E. coli ATCC 25922, >200 (>44) μg/ml; in the assay with P. aeruginosa ATCC 27853, >200 (>44) μg/ml; in the assay on S. aureus mprF, over 200 µg/mL. In addition, the IC90 is over 200 µg/mL in the assay with S. aureus dltA and >200 (>44) μg/ml in [2].
Consider SSLLEKGLDGAKKAVGGLGKLGK [SSL-23], for which the IC90 is 8 µg/mL in assay [1]; over 200 µg/mL with S. epidermidis Δica; 10 µg/mL with E. coli ATCC 25922; over 200 µg/mL in the assay with P. aeruginosa ATCC 27853; 50 µg/mL in the assay with S. aureus mprF; 10 µg/mL with S. aureus dltA. This molecule also had an IC90 in [2] of 10 µg/mL.
SSLLEKGLDGAKKAVGGLGKLGKDA [SSL-25]: the IC90 is over 200 µg/mL in assay [1]; 9 µg/mL in the assay on E. coli ML-35p; 10 µg/mL with E. coli ATCC 25922; 200 µg/mL in the assay on P. aeruginosa ATCC 27853; over 200 µg/mL in the assay on S. aureus mprF; over 200 µg/mL with S. aureus dltA. The same molecule yielded an IC90 in assay [2] of 48 µg/mL.
Consider SSLLEKGLDGAKKAVGGLGKLGKDAVEDL [SSL-29], for which the IC90 in assay [1] is 200 (69) μg/ml; in the assay on E. coli ML-35p it was over 200 µg/mL; in the assay with E. coli ATCC 25922 it was >200 (>69) μg/ml; with P. aeruginosa ATCC 27853, >200 (>69) μg/ml; in the assay with S. aureus mprF, 180 µg/mL; in [2], >200 (>69) μg/ml.
As for “SSLLEKGLDGAKKAVGGLGKLGKDAVEDLESVGKGAVHDVKDVLDSV (synthetic fragment of DCD protein) [DCD-1]”, the “morphological changes of S. aureus (transmission EM)” value with S. aureus (ATCC 25923) (100 μg/ml for 4 h) was “no signs of cell wall damage. Instead, we observed cellular disintegration”. In addition, the “localisation of peptide on bacteria (immune-EM)” value in the assay with S. aureus (ATCC 25923) (antiserum to DCD-1, immunogold labeling) is recorded as “able to bind to the cell surface but is not found in the bacterial cytoplasm”. Also, the “antimicrobial effect (percentage of killed cells)” value in assay [3] is reported as “quantity-dependent antimicrobial effect”.
With “SSLLEKGLDGAKKAVGGLGKLGKDAVEDLESVGKGAVHDVKDVLDSVL [DCD-1L]”, the IC90 was 10 µg/mL in assay [1]; over 200 µg/mL in the assay with S. epidermidis Δica; 30 µg/mL with E. coli ML-35p; 45 µg/mL in the assay with E. coli ATCC 25922; over 200 µg/mL with P. aeruginosa ATCC 27853; 50 µg/mL in the assay on S. aureus mprF. Moreover, the figures for the IC90 (with S. aureus dltA; in [2]) were 6 µg/mL and 45 µg/mL, respectively.
Consider “YDPEAASAPGSGNPCHEASAAQKENAGEDP [Y-P30, survival promoting peptide Y-P30 with one amino acid replaced, reference compound]”, for which the “antimicrobial effect (percentage of killed cells)” value in [3] is recorded as “no appreciable antimicrobial effect”.

B1: DCD protein: DCD protein comprising the sequence SEQ ID No: 1, 110 amino acid residues (protein, listed as Homo sapiens)
chain: MRFMTLLFLTALAGALVCAYDPEAASAPGSGNPCHEASAAQKENAGEDPGLARQAPKPRKQRSSLLEKGLDGAKKAVGGLGKLGKDAVEDLESVGKGAVHDVKDVLDSVL
Regarding B1, the “antimicrobial effect (percentage of killed cells)” value in assay [3] is reported as “toxic”.
